Measured values as given in PMC8831520, “Small molecule SWELL1 complex induction improves glycemic control and nonalcoholic fatty liver disease in murine Type 2 diabetes” (Nature Communications, 2022).

Legend:
[1] = molecular target: T1, ICl,SWELL (SWELL1-LRRC8 channel) in HEK-293 cells (Homo sapiens, UniProt Q8IWT6); test: ICl,SWELL inhibition after hypotonic activation (open channel), patch-clamp; format: cell-based; conditions: HEK-293 cells; for IC50: hypotonic (210 mOsm) stimulation, outward current, compound applied at 30 pA/pF, read-out: IC50 for ICl,SWELL inhibition
T1 construct: applied when the endogenous HEK-293 cell ICl,SWELL current density reached 30 pA/pF; endogenous in cells; host or cells: HEK-293 (ATCC, #CRL-1573)
T1 sequence (Q8IWT6 1-810): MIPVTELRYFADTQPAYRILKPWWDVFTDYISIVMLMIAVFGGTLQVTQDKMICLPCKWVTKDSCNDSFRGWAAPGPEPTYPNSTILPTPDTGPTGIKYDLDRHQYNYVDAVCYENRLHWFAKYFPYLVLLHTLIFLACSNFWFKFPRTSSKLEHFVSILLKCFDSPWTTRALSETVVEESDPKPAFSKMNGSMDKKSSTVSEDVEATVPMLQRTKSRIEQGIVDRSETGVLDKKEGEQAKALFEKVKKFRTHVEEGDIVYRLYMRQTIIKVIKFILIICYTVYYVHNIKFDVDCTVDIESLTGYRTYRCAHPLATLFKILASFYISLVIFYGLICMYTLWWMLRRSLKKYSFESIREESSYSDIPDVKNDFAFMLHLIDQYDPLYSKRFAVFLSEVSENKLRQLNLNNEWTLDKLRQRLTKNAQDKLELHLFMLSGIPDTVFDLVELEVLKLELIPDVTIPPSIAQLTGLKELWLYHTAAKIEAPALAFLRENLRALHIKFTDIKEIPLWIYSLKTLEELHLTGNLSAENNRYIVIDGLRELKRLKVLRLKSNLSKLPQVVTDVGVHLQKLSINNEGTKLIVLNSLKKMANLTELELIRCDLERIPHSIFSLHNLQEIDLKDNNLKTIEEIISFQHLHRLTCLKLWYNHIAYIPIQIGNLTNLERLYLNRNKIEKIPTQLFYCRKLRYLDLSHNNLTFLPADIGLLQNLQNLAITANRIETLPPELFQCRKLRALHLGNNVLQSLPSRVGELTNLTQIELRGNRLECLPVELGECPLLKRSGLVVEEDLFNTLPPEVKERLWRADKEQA
Protocol: Patch-clamp recordings of β-cells, 3T3-F442A adipocytes, and mature human adipocytes were performed as described previously[24],[28]. Briefly, all patch-clamp experiments were conducted at room temperature using either an Axopatch 200B amplifier or a MultiClamp 700B amplifier paired to a Digidata 1550 digitizer. Data were acquired using pClamp 10.4 software. For hypotonic swelling, extracellular solution consisted of the following (in mM): 90 NaCl, 2 CsCl, 1 MgCl2, 1 CaCl2, 10 HEPES, 10 mannitol, pH 7.4 with NaOH (210 mOsm/kg). The isotonic extracellular solution consisted of the same composition above but with 110 mM instead of 10 mM mannitol (300 mOsm/kg). The swell-activated current was elicited by perfusing cells with a hypotonic solution (210 mOsm/kg). […] For perforated-patch recordings in isolated human adipocytes, the intracellular solution was as above but without ATP and GTP, and contained 360 μg/ml Amphotericin B (Sigma). The holding potential was 0 mV. Voltage ramps from −100 to +100 mV (at 0.4 mV/ms) were applied every 4 s. The sampling interval was 100 μs and filtered at 10 kHz. For perforated-patch recordings, cells with a membrane resistance below 1 GΩ or access resistance above 20 MΩ were discarded. […]

[2] = system: T2, SWELL1 protein in 3T3-F442A adipocytes; test: SWELL1 protein under glucolipotoxic stress (palmitate + glucose); format: cell-based, murine; conditions: 10 µM 96 h pretreatment, then 1 mM palmitate + 25 mM glucose 16 h
T2 construct: host or cells: 3T3-F442A preadipocytes and differentiated adipocytes (wild type)
Protocol: (§1) In the case of 3T3-F442A adipocytes, the WT and KO cells were treated with either vehicle (DMSO), 1 or 10 µM SN-40X (after 7–11 days of differentiation) for 96 h and then stimulated with 0 and 10 nM insulin/serum-containing media with vehicle (DMSO) or SN-40X for 15 min for SWELL1 detection. […] To simulate glucolipotoxicity, 8 mM sodium palmitate was dissolved in 18.4% fatty-acid free BSA at 37 °C in DMEM medium with 25 mM glucose to obtain a conjugation ratio of 1:3 palmitate:BSA[80].

[3] = system: T2, SWELL1 protein in 3T3-F442A adipocytes; test: SWELL1 protein western blot in adipocytes; format: cell-based, murine; conditions: 10 and 1 μM, 4 days, then 6 h serum starving
Protocol: as §1
Adipocytes were washed twice in ice-cold phosphate buffer saline and lysed in RIPA buffer (150 mM NaCl, 20 mM HEPES, 1% NP-40, 5 mM EDTA, pH 7.4) with proteinase/phosphatase inhibitors (Roche). The cell lysate was further sonicated in 10 s cycle intervals 2–3 times and centrifuged at 18,407×g for 30 min at 4 °C and repeated one more time to remove the excess fat. The supernatant was collected and further estimated for protein concentration using a DC protein assay kit (Bio-Rad). Fat and liver tissues were homogenized and suspended in RIPA buffer with inhibitors and further processed in a similar fashion as described above. HUVECs were also prepared in a similar fashion except the lysates were spun only once to remove the cells debris to obtain the clear supernatant. For islets, either human or mouse islets were washed twice with phosphate buffer saline (PBS) and lysed using RIPA buffer containing protease and phosphatase inhibitors. The lysate was further clarified by freezing in liquid nitrogen for about 10 s for three cycles. The supernatant was collected from the whole lysate centrifuged at 16,260×g for 20 min at 4 °C. […] For soleus muscle, the tissue was homogenized in a Bullet Blender homogenizer (Speed-9, Time-3 mins) in 8 volumes of ice-cold muscle homogenization buffer (50 mM Tris, 25 mM NaCl, 0.2% Nonidet P-40, 5 mM EGTA, 2.5 mM EDTA, 20 mM NaF, 20 mM Na4P2O7·10H2O, 2 mM Na3VO4, pH 7.4) supplemented with protease/phosphatase inhibitor (Roche). The homogenized lysate was centrifuged two times at 18,500×g for 20 min at 4 °C and supernatant was collected for protein estimation. Protein samples were further prepared by boiling in 2X or 4X Laemmli buffer. Approximately 10–60 µg of total protein was loaded in 4–15% gradient gel (Bio-Rad) for separation and protein transfer was carried out onto the PVDF membranes (Bio-Rad). Membranes were blocked in 5% BSA (or 5% milk for SWELL1) in TBST buffer (0.2 M Tris, 1.37 M NaCl, 0.2% Tween-20, pH 7.4) for 1 h and incubated with appropriate primary antibodies (5% BSA or milk) overnight at 4 °C. […] The images were further analyzed for band intensities using ImageJ software. […]

T2D and non-T2D mice = test: Metabolic phenotyping: fasting glucose, GTT, ITT; conditions: compared to Inactive 1
Protocol: All compounds were dissolved in Kolliphor® EL (Sigma, #C5135).
(§2) Mice were fasted for 6 h prior to glucose tolerance tests (GTT). Baseline glucose levels at 0 min timepoint (fasting glucose, FG) were measured from a blood sample collected from tail snipping using glucometer (Bayer Healthcare LLC). Either 1 or 0.75 g D-Glucose/kg body weight were injected (i.p.) for lean or HFD mice, respectively and glucose levels were measured at 5 or 7, 15, 30, 60, 90, and 120 min timepoints after injection. For insulin tolerance tests (ITTs), the mice were fasted for 4 h. Similar to GTTs, the baseline blood glucose levels were measured at 0 min timepoint and 15, 30, 60, 90, and 120 min timepoints post-injection (i.p.) of insulin (HumulinR, 1 U/kg bodyweight for lean mice or 1.25 U/kg body weight for HFD mice). […] The collected plasma was then measured for insulin content by using Ultra-Sensitive Mouse Insulin ELISA Kit (Crystal Chem, #90080). All mouse studies were performed in a blinded fashion.

[4] = system: pancreatic islets of T2D mice; test: Insulin secretion of treated T2D mice (serum insulin, islet perifusion GSIS); format: in vivo, mouse; conditions: islets of T2D KKAy mice, compared to Inactive 1
Protocol: as §2

[5] = molecular target: T3, R103E-SWELL1 expressing HEK-293 cells (R103E O/E) (Homo sapiens, UniProt Q8IWT6, R103E); test: ICl,SWELL inhibition in SWELL1-R103E overexpressing cells, patch-clamp; format: cell-based; conditions: R103E-SWELL1 overexpressing HEK-293 cells, compound applied at maximum current density; read-out: IC50 for ICl,SWELL inhibition, R103E O/E
T3 construct: P2A:EGFP (C); host or cells: HEK-293, Lipofectamine 2000, co-transfected with CMV-Cre; EGFP+ cells recorded
T3 sequence (Q8IWT6 whole entry R103E): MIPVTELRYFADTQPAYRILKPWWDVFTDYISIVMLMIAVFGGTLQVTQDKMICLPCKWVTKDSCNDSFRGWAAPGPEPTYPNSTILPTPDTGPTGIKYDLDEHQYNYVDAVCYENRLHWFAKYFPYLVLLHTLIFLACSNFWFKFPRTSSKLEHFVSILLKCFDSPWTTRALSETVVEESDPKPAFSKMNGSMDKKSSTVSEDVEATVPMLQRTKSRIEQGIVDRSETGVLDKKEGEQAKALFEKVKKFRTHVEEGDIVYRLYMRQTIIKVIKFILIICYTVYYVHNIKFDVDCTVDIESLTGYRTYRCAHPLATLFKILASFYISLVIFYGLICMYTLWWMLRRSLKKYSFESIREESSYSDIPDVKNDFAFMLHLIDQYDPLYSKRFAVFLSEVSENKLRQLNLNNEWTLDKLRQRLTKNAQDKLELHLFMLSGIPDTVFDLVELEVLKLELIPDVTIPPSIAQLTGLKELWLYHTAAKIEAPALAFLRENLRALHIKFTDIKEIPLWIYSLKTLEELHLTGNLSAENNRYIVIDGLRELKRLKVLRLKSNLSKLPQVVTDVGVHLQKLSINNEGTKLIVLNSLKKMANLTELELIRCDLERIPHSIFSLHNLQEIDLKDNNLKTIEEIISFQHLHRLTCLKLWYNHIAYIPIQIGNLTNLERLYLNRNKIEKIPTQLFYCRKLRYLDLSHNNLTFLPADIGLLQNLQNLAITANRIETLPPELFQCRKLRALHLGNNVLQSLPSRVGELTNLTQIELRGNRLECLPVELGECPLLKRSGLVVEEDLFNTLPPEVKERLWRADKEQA
Description: See also Fig. 6 for a schematic representation. […] For SWELL1-R103E overexpression experiments, HEK-293 cells were transfected with either control Cre plasmid (CMV-Cre, McDonnell Genome Institute in Washington University in St. Louis) or Cre plus R103E-GFP (CAG-LoxP-stop-LoxP-SWELL1-R103E/3XFlag:P2A:EGFP, Vector Biolabs) plasmid using Lipofectamine 2000 as per the manufacturer’s protocol. SWELL1-R103E expressing HEK-293 cells were identified by EGFP + fluorescence.

[6] = molecular target: Mus musculus SWELL1 (LRRC8a, leucine-rich repeat-containing protein 8a) (Mus musculus); test: cryo-EM structure; SWELL1 in MSP1E3D1 lipid nanodiscs (2:1:1 DOPE:POPC:POPS), 1 mg/mL SWELL1-MSP1E3D1 with 100 µM SN-407; 20 mM HEPES, 150 mM KCl, pH 7.4; C6 refinement, then symmetry expansion and relaxation
[7] = 8 weeks HFD mice, 5 mg/kg/day × 4 days

O=C(O)CCCOc1cc2c(c(Cl)c1Cl)C(=O)C(C1CCCC1)C2 (stereo not shown) [Inactive 2, 4-((6,7-dichloro-2-cyclopentyl-1-oxo-2,3-dihydro-1H-inden-5-yl)oxy)butanoic acid]
IC50 [1]: 10.6 µM | prevention of palmitate/glucose-induced reduction of SWELL1 protein [2]: not | SWELL1 protein level relative to vehicle-treated controls [3]: did not significantly increase

CCCCC1(C2CCCC2)Cc2cc(OCCCB(O)O)c(Cl)c(Cl)c2C1=O (stereo not shown) [Inactive 3, (3-((2-butyl-6,7-dichloro-2-cyclopentyl-1-oxo-2,3-dihydro-1H-inden-5-yl)oxy)propyl)boronic acid]
IC50 [1]: 18.3 µM

CCCCC1(C2CCCC2)Cc2cc(OCCCCC(=O)O)c(Cl)c(Cl)c2C1=O (stereo not shown) [SN-403, 5-((2-butyl-6,7-dichloro-2-cyclopentyl-1-oxo-2,3-dihydro-1H-inden-5-yl)oxy)pentanoic acid]
ICl,SWELL inhibitory activity compared to SN-401 [1]: increased ICl,SWELL inhibitory activity | fasting blood glucose (T2D and non-T2D mice; [7]): significantly reduced | glucose tolerance (T2D and non-T2D mice; [7]): improved

CCCCC1(C2CCCC2)Cc2cc(OCCCCCCC(=O)O)c(Cl)c(Cl)c2C1=O (stereo not shown) [SN-407, 7-((2-butyl-6,7-dichloro-2-cyclopentyl-1-oxo-2,3-dihydro-1H-inden-5-yl)oxy)heptanoic acid]
GSIS [4]: increased | IC50 [5]: 4.2 µM | ICl,SWELL inhibitory activity compared to SN-401 [1]: increased ICl,SWELL inhibitory activity | IC50 [1]: 1.6 µM | glucose tolerance (GTT AUC) (T2D and non-T2D mice; T2D KKAy mice, 5 mg/kg i.p. 4 days): improved

Mus musculus SWELL1 (LRRC8a, leucine-rich repeat-containing protein 8a) (natural protein)
stoichiometry N [6]: 6
